Test results reported in US20180185520A1, “COLLAGEN IMAGING COMPOSTIONS” (Collagen Medical, LLC, priority 2015, published 2018).
pKd: −log10 of the molar value.

Experiments:
[1] = target: T1, rat collagen (acid soluble, type I, rat tail) (Rattus norvegicus, UniProt P02454+P02466); experiment: Collagen binding assay, dried rat collagen in microtiter plate; conditions: 37° C., pH 7.4
T1 construct: purchased Millipore Inc 08-115; host or cells: rat tail
Method: 10 ml of a 3.79 mg/mL solution of rat collagen (acid soluble, type I, rat tail, Millipore Inc, cat#08-115) is dialyzed against 10 mM Phosphate (NaH2PO4), pH 4.2 at 4° C. with three changes of the dialysis buffer.
Ice-cold 1×PBS pH 10.8 is added to the collagen solution for a final collagen concentration of 10 μM, pH 7.4. Collagen solutions are gelled and dried down in the wells of a 96 well microtiter plate (Corning Polystyrene Flat Bottom, cat#3641). 70 μl of 10 μM collagen is aliquoted into each well in every other lane in the plate (48 wells) and the plate is incubated at 37° C. for 18 hours to form a gel and evaporate to dryness. […] The final well content of gelled collagen is measured by determination of hydroxyproline and is around 180 μg/ml.
(§1) a serial dilution of 0.2 μM-30 μM of the peptide chelate is prepared in PBS, pH 7.4 ([…], of solution for each concentration). […] The concentration of free, unbound compound in the sample supernatants and the concentration of compound in the reserved (total) sample are determined by ICP-MS (Agilent 7500, gadolinium concentration). The concentration of compound bound to collagen is determined as [bound]=[total]−[unbound].
(§2) The binding of compounds to human, rat and dog collagen (5 μM) was measured over the concentration range 0.2-5 μM of Comp ID Nos.: 1-4. […]

[2] = Pharmacokinetics (rat), plasma gadolinium by ICP-MS; assay type: in vivo, Sprague Dawley rats; conditions: 1.3 umol/kg iv bolus in 80 mM sucrose, pH 7, plasma 2-90 minutes
Method: Compound ID No. 1 was formulated at pH 7 in 80 mM sucrose and administered to Sprague Dawley rats (n=2) at dose of 1.3 umol/kg using a bolus IV injection. Plasma was sampled at 2, 5, 15, 30, and 90 minutes post-injection and analyzed for gadolinium content using ICP-MS (FIG. 15).

human type I collagen = target: T2, human type I collagen (Homo sapiens, UniProt P02452+P08123); experiment: Collagen binding assay, dried human collagen in microtiter plate; conditions: 37° C., pH 7.4
T2 construct: purchased Advanced Biomatrix 5007-A
T2 sequence (P02452 162-1218 limits assumed): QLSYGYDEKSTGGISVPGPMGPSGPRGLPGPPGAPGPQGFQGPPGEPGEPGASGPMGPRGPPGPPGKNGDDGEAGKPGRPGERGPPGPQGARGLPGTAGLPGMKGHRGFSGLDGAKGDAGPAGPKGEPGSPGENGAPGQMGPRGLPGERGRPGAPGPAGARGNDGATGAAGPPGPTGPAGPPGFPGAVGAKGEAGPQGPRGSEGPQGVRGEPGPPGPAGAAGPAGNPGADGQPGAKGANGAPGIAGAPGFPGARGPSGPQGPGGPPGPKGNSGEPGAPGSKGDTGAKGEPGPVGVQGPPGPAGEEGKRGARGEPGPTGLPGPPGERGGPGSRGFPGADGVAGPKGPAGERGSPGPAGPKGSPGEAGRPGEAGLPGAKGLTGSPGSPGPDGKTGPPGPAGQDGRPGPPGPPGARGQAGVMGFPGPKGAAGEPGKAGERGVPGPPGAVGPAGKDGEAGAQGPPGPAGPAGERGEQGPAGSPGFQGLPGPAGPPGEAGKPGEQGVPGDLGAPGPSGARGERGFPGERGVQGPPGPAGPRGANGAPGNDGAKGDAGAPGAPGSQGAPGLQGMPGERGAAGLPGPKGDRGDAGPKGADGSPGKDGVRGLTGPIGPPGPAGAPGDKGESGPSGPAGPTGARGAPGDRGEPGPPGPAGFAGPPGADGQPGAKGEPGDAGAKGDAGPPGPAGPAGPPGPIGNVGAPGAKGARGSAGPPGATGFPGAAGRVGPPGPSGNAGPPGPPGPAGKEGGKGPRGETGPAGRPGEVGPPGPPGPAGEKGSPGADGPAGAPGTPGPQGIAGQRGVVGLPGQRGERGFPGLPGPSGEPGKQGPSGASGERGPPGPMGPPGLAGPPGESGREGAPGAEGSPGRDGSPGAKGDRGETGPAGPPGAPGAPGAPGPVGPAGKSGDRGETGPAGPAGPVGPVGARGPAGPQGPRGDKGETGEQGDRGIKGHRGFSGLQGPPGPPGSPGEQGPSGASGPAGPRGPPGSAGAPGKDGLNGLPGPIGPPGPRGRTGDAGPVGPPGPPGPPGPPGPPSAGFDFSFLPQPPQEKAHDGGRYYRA
T2 sequence (P08123 80-1119 limits assumed): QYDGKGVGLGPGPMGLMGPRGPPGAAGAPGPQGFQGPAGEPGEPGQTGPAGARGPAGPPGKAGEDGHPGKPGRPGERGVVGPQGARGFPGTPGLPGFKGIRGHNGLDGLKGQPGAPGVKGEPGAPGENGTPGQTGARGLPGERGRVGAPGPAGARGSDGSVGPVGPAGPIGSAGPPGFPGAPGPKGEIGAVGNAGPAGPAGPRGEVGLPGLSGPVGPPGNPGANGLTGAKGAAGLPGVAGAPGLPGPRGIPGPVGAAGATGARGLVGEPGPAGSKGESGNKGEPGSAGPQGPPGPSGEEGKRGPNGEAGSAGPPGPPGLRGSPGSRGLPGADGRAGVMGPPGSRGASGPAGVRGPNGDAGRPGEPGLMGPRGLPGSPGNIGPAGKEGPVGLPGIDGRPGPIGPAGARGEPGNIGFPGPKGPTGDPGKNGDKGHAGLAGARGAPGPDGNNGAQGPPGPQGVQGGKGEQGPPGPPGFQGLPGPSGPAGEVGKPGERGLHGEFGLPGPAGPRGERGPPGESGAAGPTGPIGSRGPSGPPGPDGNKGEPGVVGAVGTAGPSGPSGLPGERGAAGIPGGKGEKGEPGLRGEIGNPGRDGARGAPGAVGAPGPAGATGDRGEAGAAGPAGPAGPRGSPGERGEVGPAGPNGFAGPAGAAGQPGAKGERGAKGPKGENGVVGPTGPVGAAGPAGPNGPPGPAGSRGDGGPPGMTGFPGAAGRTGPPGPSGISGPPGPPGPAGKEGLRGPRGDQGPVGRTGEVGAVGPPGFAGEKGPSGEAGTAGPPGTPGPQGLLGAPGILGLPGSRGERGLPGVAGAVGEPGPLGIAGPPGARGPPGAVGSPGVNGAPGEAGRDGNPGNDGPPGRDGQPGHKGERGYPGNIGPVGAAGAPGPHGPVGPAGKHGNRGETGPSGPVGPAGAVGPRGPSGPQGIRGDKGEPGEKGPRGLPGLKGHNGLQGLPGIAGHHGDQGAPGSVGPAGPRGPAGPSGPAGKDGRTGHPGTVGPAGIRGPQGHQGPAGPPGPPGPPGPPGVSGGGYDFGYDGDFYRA
Method: 10 ml of a solution of 3 mg/ml of human type I collagen (VitroCol solution, Advanced Biomatrix, cat#5007-A) is dialyzed against 10 mM Phosphate (NaH2PO4), pH 4.2 at 4° C. with three changes of the dialysis buffer. The protein concentration is determined by liquid chromatography determination of hydroxyproline (P. Hutson, J. Chromatogr. B, 791 (2003) 427-430).
Ice-cold 1×PBS pH 10.8 is added to the collagen solution for a final collagen concentration of 10 μM, pH 7.4. Collagen solutions are gelled and dried down in the wells of a 96 well microtiter plate (Corning Polystyrene Flat Bottom, cat#3641). […] The final well content of gelled collagen is measured by determination of hydroxyproline and is around 180 μg/ml.
as §1, §2

With `CC(C)C[C@H](NC(=O)[C@@H]1CSSC[C@H](NC(=O)[C@H](Cc2c[nH]cn2)NC(=O)[C@H](Cc2c[nH]c3ccccc23)NC(=O)[C@H](CCCCNC(=O)CC[C@H](C(=O)O)N2CCN(CC(=O)O)CCN(CC(=O)O)CCN(CC(=O)O)CC2)NC(=O)CNC(=O)CC[C@H](C(=O)O)N2CCN(CC(=O)O)CCN(CC(=O)O)CCN(CC(=O)O)CC2)C(=O)N[C@@H]([C@@H](C)O)C(=O)N[C@@H]([C@@H](C)O)C(=O)N[C@@H](CCCCNC(=O)CC[C@H](C(=O)O)N2CCN(CC(=O)O)CCN(CC(=O)O)CCN(CC(=O)O)CC2)C(=O)N[C@@H](Cc2ccccc2)C(=O)N2CCC[C@H]2C(=O)N[C@@H](Cc2c[nH]cn2)C(=O)N[C@@H](Cc2c[nH]cn2)C(=O)N[C@@H](Cc2ccc(O)cc2)C(=O)N1)C(=O)N[C@@H](Cc1ccc(O)cc1)C(=O)N[C@@H](Cc1ccc(-c2ccccc2)cc1)C(N)=O` [Compound ID No. 1] the pKd [1] was 4.68, the pharmacokinetic profile [2] was “rapid initial blood clearance” and the pKd (human type I collagen) was 5.42.
